Experimental data: US9926297B2, “Bicyclic AZA compounds as muscarinic M1 receptor and/or M4 receptor agonists” (Heptares Therapeutics Limited, priority 2014, dated 2018)

Assays:
[1] = molecular target: human muscarinic M3 receptor (Homo sapiens, UniProt P20309); experiment: Alphascreen Surefire phospho-ERK1/2 functional assay, M3; conditions: for Emax: CHO, read-out: % Emax cf. ACh, M3, CHO cells stably expressing human M3, relative to ACh; for EC50: pEC50 M3, CHO cells stably expressing human M3, phospho-ERK1/2, * = variable results
[2] = molecular target: T1, human muscarinic M4 receptor (Homo sapiens, UniProt P08173); experiment: Alphascreen Surefire phospho-ERK1/2 functional assay, M4; assay type: cell-based; conditions: for EC50: CHO cells stably expressing human M4, phospho-ERK1/2, * = variable results, read-out: pEC50 M4 (converted); for Emax: CHO, read-out: % Emax cf. ACh, M4, CHO cells stably expressing human M4, relative to ACh
T1 construct: expressed in transfected cells
T1 sequence (P08173 1-479): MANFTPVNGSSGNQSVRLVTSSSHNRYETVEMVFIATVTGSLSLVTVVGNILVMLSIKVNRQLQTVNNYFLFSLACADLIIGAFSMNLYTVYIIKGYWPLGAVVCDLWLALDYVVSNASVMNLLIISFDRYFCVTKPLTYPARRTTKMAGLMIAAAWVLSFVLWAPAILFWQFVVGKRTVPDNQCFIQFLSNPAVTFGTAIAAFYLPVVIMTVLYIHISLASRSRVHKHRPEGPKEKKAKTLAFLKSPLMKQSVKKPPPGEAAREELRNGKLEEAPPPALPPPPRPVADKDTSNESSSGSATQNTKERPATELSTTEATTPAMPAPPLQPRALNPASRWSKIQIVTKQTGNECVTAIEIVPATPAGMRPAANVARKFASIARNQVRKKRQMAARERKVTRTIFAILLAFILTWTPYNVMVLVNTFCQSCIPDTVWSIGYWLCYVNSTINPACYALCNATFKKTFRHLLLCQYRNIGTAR

[3] = molecular target: T2, human muscarinic M1 receptor (Homo sapiens, UniProt P11229); experiment: Alphascreen Surefire phospho-ERK1/2 functional assay, M1; assay type: cell-based; conditions: for EC50: CHO cells stably expressing human M1, phospho-ERK1/2, * = variable results, read-out: pEC50 M1 (converted); for Emax: CHO, read-out: % Emax cf. ACh, M1, CHO cells stably expressing human M1, relative to ACh
T2 sequence (P11229 1-460): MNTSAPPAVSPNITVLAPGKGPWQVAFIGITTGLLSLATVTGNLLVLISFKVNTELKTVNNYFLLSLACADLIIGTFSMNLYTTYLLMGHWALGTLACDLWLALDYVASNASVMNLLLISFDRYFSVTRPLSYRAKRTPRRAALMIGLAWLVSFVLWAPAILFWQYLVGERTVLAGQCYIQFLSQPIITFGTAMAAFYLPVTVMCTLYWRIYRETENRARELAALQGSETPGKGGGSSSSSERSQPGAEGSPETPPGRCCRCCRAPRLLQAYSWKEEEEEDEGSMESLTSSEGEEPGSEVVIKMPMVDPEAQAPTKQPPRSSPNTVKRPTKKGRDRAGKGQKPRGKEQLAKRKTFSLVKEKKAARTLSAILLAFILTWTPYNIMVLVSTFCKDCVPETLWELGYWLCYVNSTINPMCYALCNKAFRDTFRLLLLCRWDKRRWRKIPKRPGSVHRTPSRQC

[4] = molecular target: T3, human muscarinic M2 receptor (Homo sapiens, UniProt P08172); experiment: Alphascreen Surefire phospho-ERK1/2 functional assay, M2; conditions: for Emax: CHO, read-out: % Emax cf. ACh, M2, CHO cells stably expressing human M2, relative to ACh
T3 sequence (P08172 1-466): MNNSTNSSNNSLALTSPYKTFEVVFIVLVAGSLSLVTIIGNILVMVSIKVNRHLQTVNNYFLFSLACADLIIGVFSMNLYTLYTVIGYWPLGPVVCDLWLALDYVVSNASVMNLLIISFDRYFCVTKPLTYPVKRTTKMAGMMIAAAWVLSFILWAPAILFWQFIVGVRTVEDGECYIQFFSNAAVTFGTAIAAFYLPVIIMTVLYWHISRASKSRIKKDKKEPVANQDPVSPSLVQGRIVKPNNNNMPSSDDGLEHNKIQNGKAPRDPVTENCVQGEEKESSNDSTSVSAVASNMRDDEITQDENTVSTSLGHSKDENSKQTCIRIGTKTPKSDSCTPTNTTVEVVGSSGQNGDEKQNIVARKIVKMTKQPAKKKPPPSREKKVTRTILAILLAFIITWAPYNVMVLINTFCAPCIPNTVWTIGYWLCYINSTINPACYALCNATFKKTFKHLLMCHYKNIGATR

Sequence of human muscarinic M3 receptor (P20309 whole entry): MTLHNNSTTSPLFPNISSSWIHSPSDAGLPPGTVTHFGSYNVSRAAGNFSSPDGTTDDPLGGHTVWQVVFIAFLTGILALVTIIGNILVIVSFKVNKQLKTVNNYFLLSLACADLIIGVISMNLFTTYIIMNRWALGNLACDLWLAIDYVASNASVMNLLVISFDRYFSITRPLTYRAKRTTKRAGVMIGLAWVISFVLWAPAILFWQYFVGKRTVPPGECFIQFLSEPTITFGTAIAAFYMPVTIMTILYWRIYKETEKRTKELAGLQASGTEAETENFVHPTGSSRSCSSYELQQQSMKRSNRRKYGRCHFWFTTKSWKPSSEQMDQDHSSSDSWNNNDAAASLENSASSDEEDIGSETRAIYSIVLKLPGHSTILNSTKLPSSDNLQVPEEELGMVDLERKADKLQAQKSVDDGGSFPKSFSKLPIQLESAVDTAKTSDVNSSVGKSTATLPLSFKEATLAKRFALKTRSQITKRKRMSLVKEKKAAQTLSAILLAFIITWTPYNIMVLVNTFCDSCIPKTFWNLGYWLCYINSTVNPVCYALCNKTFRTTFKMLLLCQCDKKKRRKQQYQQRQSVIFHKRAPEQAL

SMILES	Emax [1] [%]	EC50 [1] [nM]	EC50 [2] [nM]	Emax [2] [%]	EC50 [3] [nM]	Emax [3] [%]	EC50 [4] [nM]	Emax [4] [%]
CCOC(=O)N1CCC2(CC(N3CCC(c4nc(Cl)c(Cl)n4C)CC3)C2)C1 (single isomer, unassigned) [1-17 Isomer 2, ethyl 2-[4-(4,5-dichloro-1-methyl-1H-imidazol-2-yl)piperidin-1-yl]-6-azaspiro[3.4]octane-6-carboxylate]	0	> 20000	63.1	90	631	53	> 20000	14
CCOC(=O)N1CCC2(CC(N3CCC(c4ccn[nH]4)CC3)C2)C1 (single isomer, unassigned) [1-18 Isomer 2, ethyl 2-[4-(1H-pyrazol-5-yl)piperidin-1-yl]-6-azaspiro[3.4]octane-6-carboxylate]	56	> 20000	50.1	89	126	65	> 20000	3
CCOC(=O)N1CCC2(CC(N3CCC(c4ccnn4C)CC3)C2)C1 (single isomer, unassigned) [1-21 Isomer 2, ethyl 2-[4-(1-methyl-1H-pyrazol-5-yl)piperidin-1-yl]-6-azaspiro[3.4]octane-6-carboxylate]	–	> 20000	39.8	–	> 20000	11	> 20000	–
CCOC(=O)N1CCC2(CC(N3CCC(c4ncco4)CC3)C2)C1 (single isomer, unassigned) [1-23 Isomer 2, ethyl 2-[4-(1,3-oxazol-2-yl)piperidin-1-yl]-6-azaspiro[3.4]octane-6-carboxylate]	9	> 20000	31.6	105	398	55	> 20000	7
COC(=O)N1CCC2(CC(N3CCC(c4nccs4)CC3)C2)C1 (single isomer, unassigned) [1-24 Isomer 2, methyl 2-[4-(1,3-thiazol-2-yl)piperidin-1-yl]-6-azaspiro[3.4]octane-6-carboxylate]	0	> 20000	25.1	78	251	102	6310	32
CCOC(=O)N1CCC2(CC(N3CCC(c4nccs4)CC3)C2)C1 (single isomer, unassigned) [1-25 Isomer 2, ethyl 2-[4-(1,3-thiazol-2-yl)piperidin-1-yl]-6-azaspiro[3.4]octane-6-carboxylate]	13	> 20000	3.98	128	50.1	110	> 20000	15

Continued, values first:

Emax [1] [%]	EC50 [1] [nM]	EC50 [2] [nM]	Emax [2] [%]	EC50 [3] [nM]	Emax [3] [%]	EC50 [4] [nM]	Emax [4] [%]	SMILES
53	794	200	76	2510	46	> 20000	99	CCOC(=O)N1CCC2(CC(N3CCC(c4nnc[nH]4)CC3)C2)C1 (single isomer, unassigned) [1-26 Isomer 2, ethyl 2-[4-(4H-1,2,4-triazol-3-yl)piperidin-1-yl]-6-azaspiro[3.4]octane-6-carboxylate]
5	> 20000	12.6	101	316	37	> 20000	9	CCOC(=O)N1CCC2(CC(N3CCC(c4ncns4)CC3)C2)C1 (single isomer, unassigned) [1-30 Isomer 2, ethyl 2-[4-(1,2,4-thiadiazol-5-yl)piperidin-1-yl]-6-azaspiro[3.4]octane-6-carboxylate]
16	> 20000	6.31	126	79.4	113	> 20000	56	CCOC(=O)N1CCC2(CC(N3CCC(n4cccc4)CC3)C2)C1 (single isomer, unassigned) [1-32 Isomer 2, ethyl 2-[4-(1H-pyrrol-1-yl)piperidin-1-yl]-6-azaspiro[3.4]octane-6-carboxylate]
